Measurements from patent publication US20070093460A1, “Methods of using selective 11beta-HSD inhibitors to treat gluocorticoid associated states” (priority 2005, published 2007).
Entries after “also recorded” stand apart in the source; their conditions may differ. Read-outs that look alike come from different tables or passages of the source.

Columns and labels:
rat aortic rings [1] = assay: Contractile response of rat aortic rings to phenylephrine; type: cell-based; conditions: 24 h; for contractile response to phenylephrine of rings incubated with corticosterone and antisense: corticosterone 10 nmol/L + antisense 3 μmol/L, compared with nonsense oligomers; for effect on the ability of 11-dehydro-corticosterone to amplify the contractile response to phenylephrine: 11-dehydro-corticosterone 100 nmol/L, antisense 3 μmol/L vs nonsense
Description: Male Sprague-Dawley (150-200 g) rats were anesthetized with pentobarbital (50 mg/kg IP), and a median sternotomy was performed followed by the rapid removal of the thoracic aorta. The adventitia was removed, but the endothelium was left intact. The aorta was cut into 2-3 mm rings and individual rings were placed into a single well of a twenty four well culture plate and incubated at 37° C. under 95% 02-5% CO2. Each well contained 1 mL of DMEM/F12 containing 1% fetal bovine serum, streptomycin (100 μg/ml), penicillin (100 units/ml) and amphotericin (0.25 μg/ml). Aortic rings were incubated for 24 hours prior to contractility measurements with the following combinations of steroids, and antisense/nonsense oligonucleotides (3 μmol/L):
Antisense phosphorothioate oligonucleotides, targeted to block either 11β-HSD2 or 11β-HSD1 gene expression, were obtained from Research Genetics, Huntsville Ala. Antisense oligomers complementary to 20 bp sequences spanning the ribosome binding/translation start site were used. Oligomer sequences were: 5′-CATAACTGCCGTCCAACAGC-3′ (SEQ ID NO. 1) for 11β-HSD1 Antisense and 5′-AGGCCAGCGCTCCATGACTT-3′ (SEQ ID NO 2) for 11β-HSD2 antisense. In control experiments the corresponding sense sequence was used as the nonsense oligomer. Antisense and nonsense oligomers were added directly to each well at 20 μg/10:1 sterile H2O per well for a final concentration of 3 μmol/L.
For contraction measurements, aortic rings were suspended by tungsten wires with 1 g of tension and placed in a vessel bath containing serum free DMEM/F12 media at 37° C. aerated with 95% O2-5% CO2, at pH 7.4. Vessels were equilibrated for 20 minutes and then tested with phenylephrine (1 nmol/L-10 μmol/L). Although phenylephrine is structurally not a catecholamine, it is considered to be a functional catecholamine as it activates both a and P adrenoceptors. Due to its favorable stability characteristics, it is widely used as a catecholamine substitute in experiments of this nature. The intensity of contraction was assessed by use of a Narishige micromanipulator and model FT03 force transducer (Grass Instrument Co. West Warwick, R.I.). Measurements were recorded on computer using the Labview 4.1 Virtual Instrument System (National Instruments, Austin, Tex.).

rat aortic rings [2] = assay: Conversion of 3H-corticosterone to 11-dehydrocorticosterone by aortic rings; type: cell-based; conditions: 3H-corticosterone 10 nM, antisense 3 μM, 24 hrs, compared with nonsense oligomers
Description: (§1) The effects of 11β-HSD1 and 11β-HSD2 antisense on the inter-conversion of ^3H-corticosterone and ^3H-11-dehydro-corticosterone by aortic rings was also determined. Rings (2-3 mm) obtained in a similar manner as those in the contraction studies, were incubated in 1 ml DMEM/F12 media containing 1% FBS at 37° C. under 95% O2-5% CO2 in 24-well culture plates. Rings were incubated for 24 hours with:
(i) ^3H-corticosterone (10 nmol/L)±11β-HSD2 or 11β-HSD1 antisense (3 μmol/L); control groups received nonsense oligomers. The amount of ^3H-11-dehydro-corticqsterone in the incubation medium after 24 hrs was then measured. The effects of 11β-HSD1 antisense/nonsense were measured in quadruplicate (n=6 aortic rings per well) and the effects of 11β-HSD2 antisense/nonsense in duplicate (n=8 aortic rings per well),
Incubation media was collected, ran through a Sep-Pak and eluted with 3 mls of methanol, the eluate was then dried under nitrogen and reconstituted in 500:1 methanol. The aortic rings were dried and weighed. The steroids present in the eluate were separated by high-pressure liquid chromatography with a Dupont Zorbax C8 column eluted at 44° C. at a flow rate of 1 mL/min using 55% methanol for 10 minutes. Steroids were observed by monitoring radioactivity on-line with a Packard Radiomatic Flo-One/Beta Series A-500 counter connected to a Dell Optiflex 425 S/L computer. […]

[3] = system: cultured rat vascular endothelial and smooth muscle cells; assay: RT-PCR analysis of 11β-HSD isoform expression in cultured cells; type: cell-based; conditions: similar protocol
Excerpt: Since 11β-HSD2 appears to exist only in endothelial cells, this observation supports a role for the action of glucocorticoids in affecting endothelial cell function. […] Further experiments to determine whether antisense oligomers down-regulate mRNA and protein expression of their respective 11β-HSD isoform under conditions in which they enhance contractile responses in aortic rings will be done.

[4] = molecular target: T1, 11β-HSD1-reductase activity (Rattus norvegicus, UniProt P16232); assay: Metabolism of 3H-11-dehydrocorticosterone back to corticosterone by aortic rings; type: cell-based; conditions: 24 hours, compared with nonsense oligomers
T1 construct: from tissue; host or cells: rat aortic rings (intact tissue, 24 h incubation)
Description: as §1
(ii) ^3H-11β-dehydro-corticosterone (10 nmol/L)±11β-HSD1 antisense (3 μmol/L); this experiment was performed in duplicate (n=10 aortic rings per well). Control groups were incubated with the appropriate nonsense oligomer. ^3H-corticosterone in the incubation medium after 24 hrs was then measured. In this experiment, aortic rings were also analyzed for ^3H-corticosterone content. Rings from duplicate incubations (total n=20) were blotted dry, pooled and homogenized in 50% methanol using a Polytron. The homogenates were then centrifuged, extracted as below using Sep-Paks and injected onto a HPLC system for analysis.
Incubation media was collected, ran through a Sep-Pak and eluted with 3 mls of methanol, the eluate was then dried under nitrogen and reconstituted in 500:1 methanol. The aortic rings were dried and weighed. […] Steroids were observed by monitoring radioactivity on-line with a Packard Radiomatic Flo-One/Beta Series A-500 counter connected to a Dell Optiflex 425 S/L computer. […]

11β-HSD2 [5] = molecular target: T2, 11β-HSD2 (Ovis aries, UniProt P50168); assay: 11β-HSD2 enzyme activity in sheep kidney microsomes; type: biochemical
T2 construct: incubating sheep kidney microsomal fraction (6.5 μg protein) with 50 nM corticosterone; from tissue; host or cells: sheep kidney microsomal fraction
T2 sequence (P50168 1-427): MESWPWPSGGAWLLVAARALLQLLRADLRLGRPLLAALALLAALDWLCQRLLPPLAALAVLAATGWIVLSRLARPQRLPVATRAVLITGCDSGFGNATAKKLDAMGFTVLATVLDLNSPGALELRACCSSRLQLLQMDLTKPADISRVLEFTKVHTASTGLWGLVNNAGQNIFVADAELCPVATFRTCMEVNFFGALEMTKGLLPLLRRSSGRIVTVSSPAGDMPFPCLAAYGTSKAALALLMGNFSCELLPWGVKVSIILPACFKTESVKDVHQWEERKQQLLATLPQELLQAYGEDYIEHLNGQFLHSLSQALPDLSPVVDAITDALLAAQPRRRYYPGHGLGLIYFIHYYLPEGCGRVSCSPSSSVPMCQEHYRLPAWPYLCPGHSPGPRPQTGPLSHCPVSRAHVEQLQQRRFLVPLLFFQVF
Excerpt: The enzymatic reaction was termninated by addition of methanol and synthesis of 11-dehydro-corticosterone was quantitated by HPLC as described above.

11β-HSD1 = 11β-HSD1 (Homo sapiens, UniProt P28845); conditions: Monder et al., 1993; Pearson Murphy et al., 1981; cited from earlier work
11β-HSD2 [6] = molecular target: T3, 11β-HSD2 (Homo sapiens, UniProt P80365); conditions: Monder et al., 1993; Pearson Murphy et al., 1981; cited from earlier work
T3 sequence (P80365 1-405): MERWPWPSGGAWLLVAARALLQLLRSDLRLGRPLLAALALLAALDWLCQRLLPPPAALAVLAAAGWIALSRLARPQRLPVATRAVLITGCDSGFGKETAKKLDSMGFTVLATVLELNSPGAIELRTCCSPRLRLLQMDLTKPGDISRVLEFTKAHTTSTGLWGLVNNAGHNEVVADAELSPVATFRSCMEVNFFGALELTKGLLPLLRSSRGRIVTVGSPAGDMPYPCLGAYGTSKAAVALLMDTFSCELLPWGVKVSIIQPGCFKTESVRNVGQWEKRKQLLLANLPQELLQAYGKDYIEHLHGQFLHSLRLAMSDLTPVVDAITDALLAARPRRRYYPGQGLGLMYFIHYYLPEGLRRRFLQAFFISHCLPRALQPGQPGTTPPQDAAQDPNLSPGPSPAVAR

11β-HSD1 Reductase = 11β-HSD1 Reductase (Rattus norvegicus, UniProt P16232); assay: 11β-HSD1 reductase assay in rat Leydig cell homogenates;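 further: rat Leydig cell homogenate incubated 20 min at 37 °C, pH 7.4, with tritiated 11-dehydro-corticosterone and 3 mM NADPH, product measured by HPLC, inhibition from triplicate dose–response curves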
Description: (§2) Each enzyme reaction (described below) was stopped by adding 750 μL MeOH. After centrifugation, an aliquot of supernatant was analyzed by HPLC using a DuPont Zorbax C8 column.
(§3) 11β-HSD1 dehydrogenase was assayed by incubating homogenates (13,000 cells equivalent) with 600 nM [^3H]-B (0.5 μCi) in the presence of 3 mM NADP, 50 mM Tris-HCl; pH 8.4 at 37° C. for 10 minutes in a total volume of 250 μL. 11β-HSD1 reductase was assayed by incubating homogenates (52,000 cells equivalent) with 600 nM [^3H]-11-dehydro-corticosterone in presence of 3 mM NADPH, 50 mM Tris-HCl; pH 7.4 at 37° C. for 20 minutes in a total volume of 250 μL.
(§4) Each concentration was tested in triplicate and the dose response curve, showing percentage inhibition versus log concentration of steroid was plotted. The data fitted a log-linear straight line.

11β-HSD1 Dehydrogenase = 11β-HSD1 Dehydrogenase (Rattus norvegicus, UniProt P16232); assay: 11β-HSD1 dehydrogenase assay in rat Leydig cell homogenates; type: biochemical; design: Freshly prepared rat Leydig cell homogenates were chosen since they provide a rich and reliable source of both 11β-HSD1 dehydrogenase and reductase; from tissue; host or cells: rat testicular Leydig cells, homogenate;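 further: tritiated corticosterone conversion by 11β-HSD1 dehydrogenase in Leydig homogenates with 3 mM NADP at pH 8.4, 37 °C for 10 min, products resolved by HPLC, inhibition relative to uninhibited enzyme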
Description: as §2, §3, §4

normotensive SD rats = conditions: infused into normotensive SD rats; cited from earlier work
[7] = listed as 11β-HSD1 antisense oligomers

11β-HSD1 Dehydrogenase, sequence (P16232 whole entry, the tested form may be a part): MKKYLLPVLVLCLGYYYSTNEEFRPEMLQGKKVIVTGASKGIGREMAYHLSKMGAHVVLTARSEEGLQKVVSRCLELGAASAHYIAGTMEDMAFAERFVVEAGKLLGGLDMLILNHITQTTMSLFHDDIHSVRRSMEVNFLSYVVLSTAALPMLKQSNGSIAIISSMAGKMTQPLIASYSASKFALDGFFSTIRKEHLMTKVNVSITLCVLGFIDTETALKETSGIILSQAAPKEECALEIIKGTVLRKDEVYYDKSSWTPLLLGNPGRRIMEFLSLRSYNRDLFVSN
T1 sequence (P16232 whole entry): as the sequence (P16232 whole entry, the tested form may be a part) above
11β-HSD1 Reductase, sequence (P16232 whole entry): as the sequence (P16232 whole entry, the tested form may be a part) above
11β-HSD1, sequence (P28845 whole entry, species assumed): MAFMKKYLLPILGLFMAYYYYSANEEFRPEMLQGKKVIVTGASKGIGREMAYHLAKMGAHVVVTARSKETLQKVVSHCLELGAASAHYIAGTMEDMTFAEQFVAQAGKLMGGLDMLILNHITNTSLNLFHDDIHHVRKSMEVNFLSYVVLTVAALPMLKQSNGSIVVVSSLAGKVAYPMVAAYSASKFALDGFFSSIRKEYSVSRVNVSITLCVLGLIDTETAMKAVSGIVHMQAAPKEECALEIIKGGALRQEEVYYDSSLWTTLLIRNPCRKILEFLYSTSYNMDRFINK

In the case of “5′-AGGCCAGCGCTCCATGACTT-3′ (antisense AGGCCAGCGCTCCATGACTT; all phosphorothioate, sugars by position and methylation of C not given here) [11β-HSD2 antisense]”, the “contractile response to phenylephrine of rings incubated with corticosterone and antisense” value (rat aortic rings [1]) is reported as “statistically significant increase; also recorded: significantly (P<0.05) increased”, the “reduction in the conversion of corticosterone to 11-dehydrocorticosterone” value (rat aortic rings [2]) is reported as 24% and the “expression of the respective 11β-HSD enzyme isoform” value [3] is reported as “down-regulate the expression”.
In the case of “5′-CATAACTGCCGTCCAACAGC-3′ (antisense CATAACTGCCGTCCAACAGC; all phosphorothioate, sugars by position and methylation of C not given here) [11β-HSD1 antisense]”, the “effect on the ability of 11-dehydro-corticosterone to amplify the contractile response to phenylephrine” value (“effect on the ability” for short) (rat aortic rings [1]) is reported as “significantly attenuated”, the “effect on the ability” value (rat aortic rings [1]; listed as 11β-HSD1 antisense oligomer) is reported as “attenuates” and the “effect on the ability” value (rat aortic rings [1]; [7]) is reported as “attenuated”. For the same compound, the “contractile response to phenylephrine of rings incubated with corticosterone and antisense” value (rat aortic rings [1]) was “significantly increased”, the “contractile response to phenylephrine of rings incubated with corticosterone and antisense” value (rat aortic rings [1]; [7]) was “enhanced the ability of corticosterone to amplify the contractile response” and the “reduction in the conversion of corticosterone to 11-dehydrocorticosterone” value (rat aortic rings [2]) was 21%. For the same compound, the “production of 3H-corticosterone from 3H-11-dehydrocorticosterone” value [4] was “significantly reduce; also recorded: markedly reduced; also recorded: marked decrease” and the “expression of the respective 11β-HSD enzyme isoform” value [3] was “down-regulate the expression”.
For `C[C@]12CCC(=O)C=C1CC[C@@H]1[C@@H]2[C@@H](O)C[C@]2(C)C(=O)CC[C@@H]12` [11β-OH-Androstenedione, 4-Androsten-11β-ol-3,17-dione], the IC50 (11β-HSD2 [5]) is listed as 7.8 µM, the “Sheep kidney 11β-HSD2 [S] = 50 nM” value (11β-HSD2 [5]; sheep kidney microsomes, corticosterone substrate, progesterone and androgen derivatives) is listed as “weak inhibitor” and the “inhibition of 11β-HSD1 isoform” value (11β-HSD1) is listed as “poor inhibitor”. The “inhibition of 11β-HSD2 isoform” value (11β-HSD2 [6]) was “poor inhibitor”, the IC50 (11β-HSD1 Reductase) was over 100 µM and the IC50 (11β-HSD1 Dehydrogenase) was over 100 µM. For the same compound, the “Leydig Cell 11β-HSDl Dehydrogenase [S] = 600 nM” value (11β-HSD1 Dehydrogenase; rat Leydig cell homogenates, 600 nM corticosterone, progesterone and androgen derivatives) was “inactive”.
In the case of `CC(=O)[C@H]1CC[C@H]2[C@@H]3CC[C@H]4C[C@H](O)CC[C@]4(C)[C@H]3[C@@H](O)C[C@]12C` [11β-OH-allopregnanolone, 5α-Pregnan-3α,11β-diol-2O-one], the IC50 (11β-HSD2 [5]; sheep kidney microsomes, corticosterone substrate, progesterone and androgen derivatives, read-out: Sheep kidney 11β-HSD2 [S] = 50 nM) is listed as 0.12 µM, the “inhibitors of 11β-HSD2 (summary in words)” value (11β-HSD2 [5]; summary of the screening) is listed as “potent inhibitors; also recorded: high potency” and the blood pressure (normotensive SD rats) is listed as “increased BP”. For the same compound, the IC50 (11β-HSD1 Reductase; read-out: Leydig Cell 11β-HSD1 Reductase [S] = 600 nM, rat Leydig cell homogenates, 600 nM 11-dehydro-corticosterone, progesterone and androgen derivatives) was over 100 µM, the IC50 (11β-HSD1 Dehydrogenase; rat Leydig cell homogenates, 600 nM corticosterone, progesterone and androgen derivatives, read-out: Leydig Cell 11β-HSDl Dehydrogenase [S] = 600 nM) was 3 µM and the “inhibitors of 11β-HSD1 dehydrogenase (summary in words)” value (11β-HSD1 Dehydrogenase; summary of the screening) was “potent inhibitors; also recorded: high potency”.
